PMC11274883, “Anticancer Effect of Pt^[sequence], Pt^II5MESS, Pt^II56MESS and Their Platinum(IV)-Dihydroxy Derivatives against Triple-Negative Breast Cancer and Cisplatin-Resistant Colorectal Cancer” (Cancers, 2024)

Tests used:
Type in all cases: cell-based
HT29 cells [1] = test: Western blot protein expression; conditions: HT29, IC50, 72 h
Description: (§1) Protein extraction was then performed on ice. Media were collected in Eppendorf tubes, and centrifuged at 500× g for 5 min at 4 °C. Meanwhile, 200 µL of lysis RIPA buffer, made up of 150 mM NaCl, 50 mM Tris-HCl, pH 8.0, 0.1% Triton X-100, 0.5% sodium deoxycholate, 0.1% SDS and 1 mM sodium orthovanadate, was added to each well, the cells were scrapped into the buffer, and added to the media-derived pellets. The tubes were placed on the shaker for 10 min at 4 °C. Then, cell extracts were centrifuged at 12,000× g for 15 min at 4 °C, and the supernatants (containing the proteins) were collected. The Bio-Rad-DC protein assay (Bio-Rad, Hercules, CA, USA) was used to assess protein content. Laemmli protein sample buffer (4×) with β-mercaptoethanol (9%) was used to prepare a final protein concentration of 20 µg. The samples were then heated at 100 °C for 5 min. A final volume of 30 µL of each sample was added per well and subjected to SDS-PAGE using Bolt 4–12% Bis-Tris gel (Thermo Fisher, Eugene, OR, USA) at 80 V for 30 min and then 120 V for 60 min with PageRuler™ Prestained Protein or SeeBlue Prestained Protein Ladder (Thermo Fisher, Eugene, OR, USA). Proteins were subsequently transferred to a 0.2 µm PVDF membrane (Amersham, Cytiya) using a semi-dry blot transfer. The membrane was then blocked in 5% BSA in TBST, for 1 h and probed overnight at 4 °C with primary antibodies against several cell proliferation, apoptotic, anti-apoptotic, microtubule and autophagic protein markers listed in Table S7 as per the manufacturer’s protocol. The primary antibody was then removed, washed three times for 10 min with TBST and then membranes were treated with either mouse or rabbit HRP-coupled secondary antibodies (1/3000) for 1 h and 30 min. Protein band detection was then performed using the chemiluminescence ECL kit (Thermo Fisher, Eugene, OR, USA). Blot images were obtained using the Odyssey® FC imaging system (LI-COR Biosciences, Lincoln, NE, USA) and band intensities were quantified relatively to glyceraldehyde-3-phosphate dehydrogenase (GAPDH) and then normalised each replicate gel to its corresponding no treatment control using the ImageJ v1.53t software (National Institutes of Health, Bethesda, MD, USA). Each marker results from the same experiment or parallel experiment where the gels were processed in parallel. Three independent experiments per marker were conducted.

MDA−MB−231 cells = test: Western blot protein expression; conditions: MDA−MB−231, IC50, 72 h
Description: as §1

MCF−7 = test: WST-1 cytotoxicity, 72 h; conditions: MCF−7, 72 h, mean ± SEM
Description: (§2) Cells were seeded in 96-well flat-bottom culture plates at a concentration of 1000 cells per well. […] After 72 h, the medium was removed and replaced with new medium. The cell viability reagent WST-1 (10 µL, Roche Diagnostics, Indianapolis, IN, USA) was added to each well. After an hour, the absorbance was measured at 450 nm using a versatile microplate reader (Bio-strategy, Campbellfield, VIC, Australia). Three separate experiments were performed, each with n = 3 replicates. GraphPad prism 10 was used to calculate apparent IC50 values using the nonlinear regression model Y = Bottom + (Top-Bottom)/(1 + 10^(X-LogIC50)) where Top and bottom are plateaus in the y-axis (% survival).

HT29 = test: WST-1 cytotoxicity, 72 h; conditions: HT29, 72 h, mean ± SEM
Description: as §2

A2780 = test: WST-1 cytotoxicity, 72 h; conditions: A2780, 72 h, mean ± SEM
Description: as §2

MDA−MB−231 = test: WST-1 cytotoxicity, 72 h; conditions: MDA−MB−231, 72 h, mean ± SEM
Description: as §2

ADDP = test: WST-1 cytotoxicity, 72 h; conditions: ADDP, 72 h, mean ± SEM
Description: as §2

HT29 cells [2] = test: DCFDA cellular ROS detection assay; conditions: complexes at IC50, TBHP 20 µM
Description: DCFDA/H2DCFDA-cellular ROS Assay Kit (Abcam, Cambridge, MA, USA) was used to investigate the production of ROS in treated cells, as previously described. MDA−MB−231 or HT29 cells were seeded at a total concentration of 2500 cells/well in 96-well plates and incubated overnight. DMEM was then removed, and cells washed with 1× kit buffer, and stained with 25 µM 2′,7′-dichlorofluorescein diacetate (DCFH-DA) for 45 min. […] After that, the plates were scanned using the Glo-Max®-Multimode microplate reader (Promega Corporation, Alexandra, VIC, Australia) at an excitation/emission of 485/535 nm to detect fluorescence (relative fluorescence units, or RFU) at various time points. A positive control was generated using 20 µM tert-butyl hydroperoxide (TBHP), and the same procedure was applied with DCFDA. Three independent experiments in triplicates were implemented.

[3] = representative blot Figure S30G
[4] = representative blot Figure S30H

N.N.[Cl][Pt][Cl] [Cisplatin, cisplatin]
β-actin/GAPDH normalized to control (1) (HT29 cells [1]; representative blot Figure S28A): 0.6345
β-tubulin/GAPDH normalized to control (1) (HT29 cells [1]; representative blot Figure S28B): 0.8003
α-tubulin/GAPDH normalized to control (1) (HT29 cells [1]; representative blot Figure S28C): 0.8201
p-AKT/AKT/GAPDH normalized to control (1) (HT29 cells [1]; representative blot Figure S29A): 0.288
p-ERK/ERK/GAPDH normalized to control (1) (HT29 cells [1]; representative blot Figure S29B): 1.125
p53/GAPDH normalized to control (1) (HT29 cells [1]; representative blot Figure S29C): 0.9507
p21/GAPDH normalized to control (1) (HT29 cells [1]; representative blot Figure S29D): 2.964
Bax/GAPDH normalized to control (1) (HT29 cells [1]; representative blot Figure S30A): 1.81
Bcl2/GAPDH normalized to control (1) (HT29 cells [1]; representative blot Figure S30B): 0.5659
Cyt C/GAPDH normalized to control (1) (HT29 cells [1]; representative blot Figure S30C): 2.419
Procaspase 8/GAPDH normalized to control (1) (HT29 cells [1]; representative blot Figure S30D): 0.004029
Cleaved BID/GAPDH normalized to control (1) (HT29 cells [1]; representative blot Figure S30E): 2.527
Procaspase 9/GAPDH normalized to control (1) (HT29 cells [1]; representative blot Figure S30F): 0.6388
Cleaved caspase 3/GAPDH normalized to control (1) (HT29 cells [1]; [3]): 11.81
Procaspase 3/GAPDH normalized to control (1) (HT29 cells [1]; [3]): 1.2
Cleaved PARP-1/GAPDH normalized to control (1) (HT29 cells [1]; [4]): 3.484
PARP-1/GAPDH normalized to control (1) (HT29 cells [1]; [4]): 0.8236
Beclin1/GAPDH normalized to control (1) (HT29 cells [1]; representative blot Figure S31A): 3.89
ATG5/GAPDH normalized to control (1) (HT29 cells [1]; representative blot Figure S31B): 1.193
ATG16L1/GAPDH normalized to control (1) (HT29 cells [1]; representative blot Figure S31C): 1.173
ATG9A/GAPDH normalized to control (1) (HT29 cells [1]; representative blot Figure S31D): 2.212
ATG4B/GAPDH normalized to control (1) (HT29 cells [1]; representative blot Figure S31E): 1.101
LC3B/GAPDH normalized to control (1) (HT29 cells [1]; representative blot Figure S31F): 3.233
LC3B protein expression level increase (MDA−MB−231 cells; Figure 12D): up to 3 folds
β-actin/GAPDH normalized to control (1) (MDA−MB−231 cells; representative blot Figure S24A): 0.5805
β-tubulin/GAPDH normalized to control (1) (MDA−MB−231 cells; representative blot Figure S24B): 1.195
α-tubulin/GAPDH normalized to control (1) (MDA−MB−231 cells; representative blot Figure S24C): 0.9486
p-AKT/AKT/GAPDH normalized to control (1) (MDA−MB−231 cells; representative blot Figure S25A): 0.6181
p-ERK/ERK/GAPDH normalized to control (1) (MDA−MB−231 cells; representative blot Figure S25B): 0.2123
p53/GAPDH normalized to control (1) (MDA−MB−231 cells; representative blot Figure S25C): 1.585
p21/GAPDH normalized to control (1) (MDA−MB−231 cells; representative blot Figure S25D): 1.351
Bax/GAPDH normalized to control (1) (MDA−MB−231 cells; representative blot Figure S26A): 1.836
Bcl2/GAPDH normalized to control (1) (MDA−MB−231 cells; representative blot Figure S26B): 0.7529
Cytochrome C/GAPDH normalized to control (1) (MDA−MB−231 cells; representative blot Figure S26C): 2.371
Procaspase 8/GAPDH normalized to control (1) (MDA−MB−231 cells; representative blot Figure S26D): 0.5682
Cleaved BID/GAPDH normalized to control (1) (MDA−MB−231 cells; representative blot Figure S26E): 11.07
Procaspase 9/GAPDH normalized to control (1) (MDA−MB−231 cells; representative blot Figure S26F): 1.122
Procaspase 3/GAPDH normalized to control (1) (MDA−MB−231 cells; representative blot Figure S26G): 0.8253
PARP-1/GAPDH normalized to control (1) (MDA−MB−231 cells; representative blot Figure S26H): 0.7867
Beclin1/GAPDH normalized to control (1) (MDA−MB−231 cells; representative blot Figure S27A): 0.9211
ATG5/GAPDH normalized to control (1) (MDA−MB−231 cells; representative blot Figure S27B): 0.8216
ATG16L1/GAPDH normalized to control (1) (MDA−MB−231 cells; representative blot Figure S27C): 0.9512
ATG9A/GAPDH normalized to control (1) (MDA−MB−231 cells; representative blot Figure S27D): 0.6551
ATG4B/GAPDH normalized to control (1) (MDA−MB−231 cells; representative blot Figure S27E): 1.551
LC3B/GAPDH normalized to control (1) (MDA−MB−231 cells; representative blot Figure S27F): 1.368
IC50 (MCF−7): 33 ± 1.35 µM
IC50 (HT29): 77.8 ± 1.97 µM
IC50 (A2780): 21.5 ± 1.55 µM
IC50 (MDA−MB−231): 13.1 ± 1.36 µM
IC50 (ADDP): 112 ± 2.02 µM
ROS production (HT29 cells [2]; HT29, 24 h): 205.39 RFU
ROS production (HT29 cells [2]; HT29, 48 h): 285.11 RFU
ROS production (HT29 cells [2]; HT29, 72 h): 316.55 RFU
